Counter-ions that a name gives are not always drawn.
What was measured:
[1] = tested on: Ear Edema Caused by Xylene; assay: Inhibition of Ear Edema Caused by Xylene (II), Table 9; assay type: in vivo, CF-1 mice; conditions: i.p., 2 h
Experimental: Inhibition of Ear Edema Caused by Xylene (II)
(§1) CF-1 mice, 25-30 g body weight, six animals per group, were used. The requisite amount of the test compound was dissolved is dimethyl sulfoxide or 0.5% methylcellulose and 100 μL of the solution was injected intraperitoneally 30 minutes prior to the administration the irritant. The irritant xylene was applied to the surface of the ear, 20 μL to the upper surface and 20 μL to the lower surface, After two hours, the thickness of the ear was measured to 0.01 mm by a micrometer with the loose drag positioned at the lateral-most edge of the mid-point of the pinna. Data were calculated as the percent inhibition by the test compound of increased ear thickness compared to control animals receiving only the irritant.

[2] = tested on: Ear Edema Caused by Oxazolone; assay: Inhibition of Ear Edema Caused by Oxazolone (II), Table 10; assay type: in vivo, CF-1 mice; conditions: i.p., 24 h
Experimental: Inhibition of Ear Edema Caused by Oxazolone (II)
CF-1 mice, 25-30 g body weight, five to six animals per group were used. The mice were sensitized to the irritant two weeks prior to the test by dribbling 100 μL of a 3% solution of oxazolone in acetone onto the abdominal skin of the animal. Test compounds were administered intraperitoneally as follows. […] The irritant, 3% oxazolone in acetone, was added to the surface of the ear, 5 μL added to the upper surface and 5 μL added to the lower surface. After twenty four hours, the thickness of the ear was measured to 0.01 mm by a micrometer with loose drag, positioned at the lateral-most edge of the mid-point of the pinna. Data were calculated as the inhibition of increased ear thickness compared to control animals' receiving only the irritant.

[3] = tested on: Reverse Passive Artus Reaction; assay: Reverse Passive Artus Reaction (II), Table 11; assay type: in vivo, Male CD rats; conditions: inhibition of blueing, i.p.
Experimental: Reverse Passive Artus Reaction (II) Male CD rats weighing between 200 and 250 g were used. […] The animals were anesthetized inhalationally with isoflurane and then injected through the penile vein with 1 mL of a solution of 2.5 mg of Evan's blue dye and 5.0 mg of human serum albumin in 1 mL of saline. This treatment was followed immediately by intracutaneous injections of 0.03 mL of anti-human albumin diluted to contain 3.65 mg of antibody at 3 sites along the midline back. Anesthesia was terminated and after three hours, the animals were sacrificed. The skin was removed and the blue stained areas cut out. The skin patches were soaked overnight in stoppered tubes containing 1 mL of 1 N potassium hydroxide at 37° C. Then 9 mL of a mixture of five parts of a 0.6 N phosphoric acid and thirteen parts of acetone were added to the tubes. The tube contents were agitated and centrifuged, and the absorbance measured at 620 nm. The data were calculated as inhibition of blueing by test compound compared to control animals receiving only antigen and antibody.

[4] = tested on: Ear Edema Caused By Tetradecanoylphorbol Acetate; assay: Inhibition of Ear Edema Caused by Tetradecanoylphorbol Acetate (II), Table 7; assay type: in vivo, CF-1 Mice; conditions: i.p., 3 h
Experimental: Inhibition of Ear Edema Caused by Tetradecanoylphorbol Acetate (II)
CF-1 Mice, 25-30 g body weight, six animals per group were used. Test compounds were administered intraperitoneally or topically as follows. For intraperitoneal administration, the test compound was dissolved in dimethyl sulfoxide or 0.5% methylcellulose and 100 microliters was injected 30 minutes prior to irritant (100 mg/kg, i.p.). […] A solution of the irritant, tetradecanoylphorbol acetate, 200 μg/mL, was added to the surface of the ear, 5 μL to the upper surface and 5 μL to the lower surface. After three hours, the thickness of the ear was measured to 0.01 mm by a micrometer with loose drag, positioned at the lateral-most edge of the mid-point of the pinna. Data were calculated as the inhibition of increased ear thickness compared to control animals receiving only the irritant.

[5] = tested on: Ear Edema Caused by Arachidonic Acid; assay: Inhibition of Ear Edema Caused by Arachidonic Acid (II), Table 8; assay type: in vivo, CF-1 mice; conditions: i.p., sixty minutes
Experimental: Inhibition of Ear Edema Caused by Arachidonic Acid (II)
as §1, with “of 100 mg/kg of arachidponic acid. A solution of this irritant, b 100 mg/mL in ethanol,” for “the irritant. The irritant xylene”, “5” for “20”, “surface.” for “surface,”, “sixty minutes,” for “two hours,”, “inhibityion” for “inhibition”, “recieveing” for “receiving”

CC(C)(C)[C@H](NC(=O)CCC1c2ccccc2-c2ccccc21)C(=O)O [NPC 15685, N-[3-(9H-Fluoren-9-yl)propionyl]-L-tert-leucine, quarter hydrate]
% Inhibition ([1]; 10 mg/kg): 5%
% Inhibition ([1]; 30 mg/kg): 23%
% Inhibition ([1]; 100 mg/kg): 18%
% Inhibition Intraperitoneal ([2]; 10 mg/kg): 0%
% Inhibition Intraperitoneal ([2]; 30 mg/kg): 30%
% Inhibition Intraperitoneal ([2]; 100 mg/kg): 30%
% Inhibition Intraperitoneal ([3]; 100 mg/kg): 42%
% Inhibition Intraperitoneal ([4]; 10 mg/kg): 0%
% Inhibition Intraperitoneal ([4]; 30 mg/kg): 16%
% Inhibition Intraperitoneal ([4]; 100 mg/kg): 67%
% Inhibition Intraperitoneal ([5]; 10 mg/kg): 44%
% Inhibition Intraperitoneal ([5]; 30 mg/kg): 61%
% Inhibition Intraperitoneal ([5]; 100 mg/kg): 69%

Cc1cccc2c1C(COC(=O)N[C@@H](CC(C)C)C(=O)O)c1ccccc1-2 (stereo partly drawn) [NPC 15638, N-{[9H-(1-Methylfluoren-9-yl)methoxy]carbonyl}-L-leucine]
% Inhibition ([1]; 10 mg/kg): 37%
% Inhibition ([1]; 30 mg/kg): 66%
% Inhibition ([1]; 100 mg/kg): 82%
% Inhibition Intraperitoneal ([2]; 30 mg/kg): 67%
% Inhibition Intraperitoneal ([2]; 100 mg/kg): 74%
% Inhibition Intraperitoneal ([3]; 100 mg/kg): 68%
% Inhibition Intraperitoneal ([4]; 10 mg/kg): 23%
% Inhibition Intraperitoneal ([4]; 30 mg/kg): 12%
% Inhibition Intraperitoneal ([4]; 100 mg/kg): 62%
% Inhibition Intraperitoneal ([5]; 100 mg/kg): 65%

CC(C)C[C@H](NC(=O)CCC1c2ccccc2-c2ccccc21)C(=O)O [NPC 15672, N-{9H-[3-Fluorenyl-9)propionyl]}-L-leucine, sodium salt]
% Inhibition Intraperitoneal ([2]; 10 mg/kg, sodium salt): 11%
% Inhibition Intraperitoneal ([2]; 30 mg/kg, sodium salt): 19%
% Inhibition Intraperitoneal ([2]; 100 mg/kg, sodium salt): 35%
% Inhibition Intraperitoneal ([3]; 100 mg/kg, sodium salt): 34%
% Inhibition Intraperitoneal ([4]; 10 mg/kg): 54%
% Inhibition Intraperitoneal ([4]; 30 mg/kg): 21%
% Inhibition Intraperitoneal ([4]; 100 mg/kg, sodium salt): 66%

Cc1ccc2c(c1)C(COC(=O)N[C@@H](CC(C)C)C(=O)O)c1ccccc1-2 (stereo partly drawn) [NPC 15477, N-{[9H-(2-Methylfluoren-9-yl)methoxy]carbonyl}-L-leucine]
% Inhibition ([1]; 10 mg/kg): 41%
% Inhibition ([1]; 30 mg/kg): 53%
% Inhibition ([1]; 100 mg/kg): 69%
% Inhibition Intraperitoneal ([2]; 10 mg/kg): 3%
% Inhibition Intraperitoneal ([2]; 30 mg/kg): 14%
% Inhibition Intraperitoneal ([2]; 100 mg/kg): 43%
% Inhibition Intraperitoneal ([3]; 100 mg/kg): 53%
% Inhibition Intraperitoneal ([4]; 10 mg/kg): 35%
% Inhibition Intraperitoneal ([4]; 30 mg/kg): 37%
% Inhibition Intraperitoneal ([4]; 100 mg/kg): 72%
% Inhibition Intraperitoneal ([5]; 10 mg/kg): 10%
% Inhibition Intraperitoneal ([5]; 30 mg/kg): 58%
% Inhibition Intraperitoneal ([5]; 100 mg/kg): 82%

Cc1ccc2c(c1)C(CCC(=O)N[C@@H](CC(C)C)C(=O)O)c1ccccc1-2 (stereo partly drawn) [NPC 15671, N-{9H-[3-(2-Methylfluoren-9-yl)propionyl]}-L-leucine]
% Inhibition ([1]; 10 mg/kg): 6%
% Inhibition ([1]; 30 mg/kg): 10%
% Inhibition ([1]; 100 mg/kg): 18%
% Inhibition Intraperitoneal ([2]; 10 mg/kg): 5%
% Inhibition Intraperitoneal ([2]; 30 mg/kg): 20%
% Inhibition Intraperitoneal ([2]; 100 mg/kg): 69%
% Inhibition Intraperitoneal ([3]; 100 mg/kg): 13%
% Inhibition Intraperitoneal ([4]; 10 mg/kg): 41%
% Inhibition Intraperitoneal ([4]; 30 mg/kg): 31%
% Inhibition Intraperitoneal ([4]; 100 mg/kg): 66%
% Inhibition Intraperitoneal ([5]; 10 mg/kg): 40%
% Inhibition Intraperitoneal ([5]; 30 mg/kg): 19%
% Inhibition Intraperitoneal ([5]; 100 mg/kg): 56%

Cc1cccc2c1C(CCC(=O)N[C@H](C(=O)O)C(C)(C)C)c1ccccc1-2 (stereo partly drawn) [NPC 15885, N-{9H-[3-(1-Methylfluoren-9-yl)propionyl]}-L-tert-leucine, quarter hydrate]
% Inhibition ([1]; 10 mg/kg): 39%
% Inhibition ([1]; 30 mg/kg): 49%
% Inhibition ([1]; 100 mg/kg): 48%
% Inhibition Intraperitoneal ([2]; 10 mg/kg): 1%
% Inhibition Intraperitoneal ([2]; 30 mg/kg): 8%
% Inhibition Intraperitoneal ([2]; 100 mg/kg): 36%
% Inhibition Intraperitoneal ([3]; 100 mg/kg): 49%
% Inhibition Intraperitoneal ([4]; 10 mg/kg): 70%
% Inhibition Intraperitoneal ([4]; 30 mg/kg): 77%
% Inhibition Intraperitoneal ([4]; 100 mg/kg): 80%
% Inhibition Intraperitoneal ([5]; 10 mg/kg): 52%
% Inhibition Intraperitoneal ([5]; 30 mg/kg): 71%
% Inhibition Intraperitoneal ([5]; 100 mg/kg): 79%

CC(C)C[C@H](NC(=O)OCC1c2ccccc2-c2ccccc21)C(=O)OC(C)(C)C [NPC 15527, N-[(9H-Fluoren-9-ylmethoxy)carbonyl]-L-leucine t-butyl ester]
% Inhibition ([1]; 10 mg/kg): 42%
% Inhibition ([1]; 30 mg/kg): 34%
% Inhibition ([1]; 100 mg/kg): 50%
% Inhibition Intraperitoneal ([2]; 10 mg/kg): 31%
% Inhibition Intraperitoneal ([2]; 30 mg/kg): 33%
% Inhibition Intraperitoneal ([2]; 110 mg/kg (so in the source)): 54%
% Inhibition Intraperitoneal ([3]; 100 mg/kg): 4%
% Inhibition Intraperitoneal ([4]; 10 mg/kg): 54%
% Inhibition Intraperitoneal ([4]; 30 mg/kg): 54%
% Inhibition Intraperitoneal ([4]; 100 mg/kg): 74%
% Inhibition Intraperitoneal ([5]; 10 mg/kg): 21%
% Inhibition Intraperitoneal ([5]; 30 mg/kg): 47%
% Inhibition Intraperitoneal ([5]; 110 mg/kg (so in the source)): 68%

CC(C)CC(CO)NC(=O)OCC1c2ccccc2-c2ccccc21 (stereo not shown) [NPC 15427, 2-{N-[(9H-Fluoren-9-ylmethoxy)carbonyl]amino}-4-methylpentanol]
% Inhibition Intraperitoneal ([3]; 100 mg/kg): 14%

COC(=O)[C@H](CC(C)C)NC(=O)OCC1c2ccccc2-c2ccccc21 [NPC 15326, N-[(9H-Fluoren-9-ylmethoxy)carbonyl]-L-leucine methyl ester]
% Inhibition Intraperitoneal ([3]; 100 mg/kg): 19%

CC(C)C[C@H](NC(=O)CCC1c2ccccc2-c2ccccc21)C(=O)O [NPC 15476, N-[3-(9H-Fluoren-9-yl)propionyl]-L-leucine]
% Inhibition Intraperitoneal ([2]; 10 mg/kg): 0%
% Inhibition Intraperitoneal ([2]; 30 mg/kg): 5%
% Inhibition Intraperitoneal ([2]; 100 mg/kg): 43%
% Inhibition Intraperitoneal ([3]; 100 mg/kg): 56%
% Inhibition Intraperitoneal ([4]; 100 mg/kg): 64%

COc1ccc2c(c1)c(CC(=O)O)c(C)n2C(=O)c1ccc(Cl)cc1 [Indomethacin, reference compound]
% Inhibition Intraperitoneal ([2]; 1 mg/kg): 4%
% Inhibition Intraperitoneal ([2]; 3 mg/kg): 35%
% Inhibition Intraperitoneal ([3]; 1 mg/kg): 5%
% Inhibition Intraperitoneal ([3]; 3 mg/kg): 26%
% Inhibition Intraperitoneal ([3]; 10 mg/kg): 27%
% Inhibition Intraperitoneal ([5]; 100 mg/kg): 1%

CC(C)C[C@H](NC(=O)OCC1c2ccccc2-c2ccccc21)C(=O)OCC(O)CO (stereo partly shown) [NPC 15430]
% Inhibition Intraperitoneal ([3]; 100 mg/kg): 48%

COc1ccc2c(c1)C(COC(=O)N[C@@H](CC(C)C)C(=O)O)c1ccccc1-2 (stereo partly drawn) [NPC 15489, N-[(2-Methoxyfluoren-9-ylmethoxy)carbonyl]-L-leucine]
% Inhibition Intraperitoneal ([3]; 100 mg/kg): 64%

Cc1cccc2c1-c1c(C)cccc1C2COC(=O)N[C@@H](CC(C)C)C(=O)O [NPC 15670]
% Inhibition ([1]; 10 mg/kg): 78%
% Inhibition ([1]; 30 mg/kg): 46%
% Inhibition ([1]; 100 mg/kg): 50%
% Inhibition Intraperitoneal ([2]; 10 mg/kg): -36%
% Inhibition Intraperitoneal ([2]; 30 mg/kg): 43%
% Inhibition Intraperitoneal ([3]; 100 mg/kg): 82%
% Inhibition Intraperitoneal ([4]; 10 mg/kg): 27%
% Inhibition Intraperitoneal ([4]; 30 mg/kg): 117%
% Inhibition Intraperitoneal ([4]; 100 mg/kg): 150%

Reference: patent publication US5079260A, “Method for treating inflammation and compounds and compositions suitable for use therein” (Nova Pharmaceutical Corporation, priority 1990, dated 1992)
